Structures can show the parent of a compound that is named as a salt.
How the values were obtained:
[1] = biological target: T1, furin (endogenous protease) in U20S cells (Homo sapiens, UniProt P09958); assay: Furin cell-based assay (image-based, Golgi-targeted GFP with BMP10 furin/PCSK cleavage site); conditions: 24-hour incubation, read-out: furin golgi cell pXC50 (converted);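 note: Read-out is mean GFP fluorescence of Golgi puncta per cell by high-content imaging, retained when furin inhibited, over an eleven-point 0.00017–10 µM series, four-parameter fit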
T1 construct: the endogenous protease cleaves GFP; endogenous in cells; host or cells: U2OS cells transduced with a BacMam reporter
T1 sequence (P09958 108-794): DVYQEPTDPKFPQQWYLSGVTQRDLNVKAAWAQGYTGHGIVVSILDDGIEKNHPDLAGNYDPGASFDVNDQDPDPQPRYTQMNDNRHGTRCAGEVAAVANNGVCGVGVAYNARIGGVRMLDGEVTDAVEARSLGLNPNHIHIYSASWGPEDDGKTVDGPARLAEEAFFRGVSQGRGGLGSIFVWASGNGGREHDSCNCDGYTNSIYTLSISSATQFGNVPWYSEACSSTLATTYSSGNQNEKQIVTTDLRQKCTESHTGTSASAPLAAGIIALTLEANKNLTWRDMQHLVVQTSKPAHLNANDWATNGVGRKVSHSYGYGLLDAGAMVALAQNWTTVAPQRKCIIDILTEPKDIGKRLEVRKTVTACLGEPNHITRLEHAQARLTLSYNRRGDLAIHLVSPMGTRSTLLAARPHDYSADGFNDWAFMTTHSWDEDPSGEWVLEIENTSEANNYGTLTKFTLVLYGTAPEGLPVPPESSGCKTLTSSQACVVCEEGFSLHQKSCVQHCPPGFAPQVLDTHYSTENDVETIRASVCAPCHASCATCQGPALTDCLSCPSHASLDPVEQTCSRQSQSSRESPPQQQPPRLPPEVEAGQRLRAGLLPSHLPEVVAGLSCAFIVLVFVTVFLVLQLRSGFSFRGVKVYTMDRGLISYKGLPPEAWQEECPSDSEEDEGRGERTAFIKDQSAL

[2] = biological target: T2, Furin (108-574-Tev-Flag-His) enzyme (Homo sapiens, UniProt P09958); assay: Furin enzyme assay; assay type: biochemical; conditions: for IC50: read-out: furin enzyme pIC50 (converted)
T2 construct: Furin (108-574-Tev-Flag-His) enzyme was expressed and purified from CHO cells; TEV cleavage site (C); FLAG (C); His (C); made in house; host or cells: CHO cells
T2 sequence (P09958 108-574): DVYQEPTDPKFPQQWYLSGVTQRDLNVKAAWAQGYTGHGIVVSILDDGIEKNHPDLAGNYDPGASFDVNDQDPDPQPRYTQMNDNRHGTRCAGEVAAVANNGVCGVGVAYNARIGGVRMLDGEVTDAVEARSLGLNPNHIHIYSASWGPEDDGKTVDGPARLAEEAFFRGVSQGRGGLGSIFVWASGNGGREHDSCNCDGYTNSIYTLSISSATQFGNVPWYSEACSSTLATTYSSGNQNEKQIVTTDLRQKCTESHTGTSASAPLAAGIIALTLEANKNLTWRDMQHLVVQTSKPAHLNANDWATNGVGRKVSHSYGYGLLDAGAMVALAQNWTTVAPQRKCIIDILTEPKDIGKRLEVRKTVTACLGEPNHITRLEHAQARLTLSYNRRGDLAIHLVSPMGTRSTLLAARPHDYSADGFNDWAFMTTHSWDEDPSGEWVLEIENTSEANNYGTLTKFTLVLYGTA
In short: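 Compounds ran as 11-point threefold dilutions (0.00017–10 μM final) against 40 pM furin, purified from CHO cells, for 2 h at room temperature. Buffer: 100 mM HEPES pH7.5 with 1 mM CaCl2 and 0.005% Triton X-100. Envision readout. Four-parameter curve gives pXC50.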

CC(=O)NCC1CCN(Cc2cc(Oc3ccc(N4CCN(CCC(=O)O)CC4)nc3)cc(-c3cc(Cl)cc(Cl)c3)c2)CC1 [Example 258, 3-(4-(5-((5-((4-(acetamidomethyl)piperidin-1-yl)methyl)-3′,5′-dichloro-[1,1′-biphenyl]-3-yl)oxy)pyridin-2-yl)piperazin-1-yl)propanoic acid]
EC50 [1]: 31.6 nM
furin enzyme pIC50 [2]: 9.6

CC(=O)NCC1CCN(Cc2cc(Oc3cnc(N4CCN(CC(C)C(=O)O)CC4)nc3)nc(-c3cc(Cl)cc(Cl)c3)c2)CC1 (stereo not drawn) [Example 283, 3-(4-(5-((4-((4-(acetamidomethyl)piperidin-1-yl)methyl)-6-(3,5-dichlorophenyl)pyridin-2-yl)oxy)pyrimidin-2-yl)piperazin-1-yl)-2-methylpropanoic acid]
EC50 [1]: 25.1 nM
furin enzyme pIC50 [2]: 9.1

CC(=O)NCC1CCN(Cc2cc(Oc3ccc(N4C[C@H](CN)[C@@H](O)C4)nc3)nc(-c3cc(Cl)cc(Cl)c3)c2)CC1 (relative stereo) [Example 184, N-((1-((2-((6-(trans-3-(Aminomethyl)-4-hydroxypyrrolidin-1-yl)pyridin-3-yl)oxy)-6-(3,5-dichlorophenyl)pyridin-4-yl)methyl)piperidin-4-yl)methyl)acetamide]
EC50 [1]: 15.8 nM
IC50 [2]: 0.251 nM

O=C(O)CC1CCN(Cc2cc(-c3cc(Cl)cc(Cl)c3)nc(Oc3cnc(N4CC5CCC(C4)N5)nc3)c2F)CC1 [Example 382, 2-(1-((2-((2-(3,8-diazabicyclo[3.2.1]octan-3-yl)pyrimidin-5-yl)oxy)-6-(3,5-dichlorophenyl)-3-fluoropyridin-4-yl)methyl)piperidin-4-yl)acetic acid]
EC50 [1]: 6.31 nM
furin enzyme pIC50 [2]: 8.6

CC(=O)NCC1CCN(Cc2cc(Oc3cnc(N4CCN(C(C)CC(N)=O)CC4)nc3)nc(-c3cc(Cl)cc(Cl)c3)c2)CC1 (stereo not drawn) [Example 95, 3-(4-(5-((4-((4-(Acetamidomethyl)piperidin-1-yl)methyl)-6-(3,5-dichlorophenyl)pyridin-2-yl)oxy)pyrimidin-2-yl)piperazin-1-yl)butanamide, 4 hydrochloride]
EC50 [1]: 1.58 nM
furin enzyme pIC50 [2]: 9.9

CN1CCN(c2ccc(Oc3nc(-c4cc(Cl)cc(Cl)c4)cc(CN4CCC(CC(=O)O)CC4)c3F)nn2)CC1 [Example 384, 2-(1-((6-(3,5-dichlorophenyl)-3-fluoro-2-((6-(4-methylpiperazin-1-yl)pyridazin-3-yl)oxy)pyridin-4-yl)methyl)piperidin-4-yl)acetic acid]
EC50 [1]: 25.1 nM
furin enzyme pIC50 [2]: 8.4

C[C@H]1CN(c2ncc(Oc3cc(CN4CCC(CC(=O)O)CC4)cc(-c4cc(Cl)cc(Cl)c4)n3)cn2)CCN1 [Example 159, (S)-2-(1-((2-(3,5-Dichlorophenyl)-6-((2-(3-methylpiperazin-1-yl)pyrimidin-5-yl)oxy)pyridin-4-yl)methyl)piperidin-4-yl)acetic acid]
EC50 [1]: 25.1 nM
furin enzyme pIC50 [2]: 8.5

CN1CCN(c2ncc(Oc3cc(CN4CCC(CCO)CC4)cc(-c4cc(Cl)cc(Cl)c4)n3)cn2)CC1 [Example 52, 2-(1-((2-(3,5-Dichlorophenyl)-6-((2-(4-methylpiperazin-1-yl)pyrimidin-5-yl)oxy)pyridin-4-yl)methyl)piperidin-4-yl)ethanol]
EC50 [1]: 1.26 nM
furin enzyme pIC50 [2]: 9.8

CC(C)(O)CCN1CCN(c2ncc(Oc3cc(CN4CCC(CC(=O)O)CC4)cc(-c4cc(Cl)cc(Cl)c4)n3)cn2)CC1 [Example 279, 2-(1-((2-(3,5-dichlorophenyl)-6-((2-(4-(3-hydroxy-3-methylbutyl)piperazin-1-yl)pyrimidin-5-yl)oxy)pyridin-4-yl)methyl)piperidin-4-yl)acetic acid]
EC50 [1]: 20 nM
furin enzyme pIC50 [2]: 8.6

CC(=O)NCC1CCN(Cc2cc(Oc3ccc(N4CCN(CCS(N)(=O)=O)CC4)nc3)nc(-c3cc(Cl)cc(Cl)c3)c2)CC1 [Example 289, N-((1-((2-(3,5-dichlorophenyl)-6-((6-(4-(2-sulfamoylethyl)piperazin-1-yl)pyridin-3-yl)oxy)pyridin-4-yl)methyl)piperidin-4-yl)methyl)acetamide]
EC50 [1]: 5.01 nM
furin enzyme pIC50 [2]: 8.6

CNC(=O)NCC1CCN(Cc2cc(Oc3cnc(N4CCN(C(C)CCS(C)(=O)=O)CC4)nc3)nc(-c3cc(F)cc(Cl)c3)c2)CC1 (stereo not drawn) [Example 373, 1-((1-((2-(3-chloro-5-fluorophenyl)-6-((2-(4-(4-(methylsulfonyl)butan-2-yl)piperazin-1-yl)pyrimidin-5-yl)oxy)pyridin-4-yl)methyl)piperidin-4-yl)methyl)-3-methylurea]
EC50 [1]: 5.01 nM
furin enzyme pIC50 [2]: 8.9

CS(=O)(=O)CCC1CCN(Cc2cc(Oc3ccc(N4CCN(CCC(=O)O)CC4)nc3)nc(-c3cc(Cl)cc(Cl)c3)c2)CC1 [Example 276, 3-(4-(5-((6-(3,5-dichlorophenyl)-4-((4-(2-(methylsulfonyl)ethyl)piperidin-1-yl)methyl)pyridin-2-yl)oxy)pyridin-2-yl)piperazin-1-yl)propanoic acid]
EC50 [1]: 50.1 nM
furin enzyme pIC50 [2]: 9

CNC(=O)NCC1CCN(Cc2cc(Oc3cnc(N4CCN(CCOC)CC4)nc3)nc(-c3cc(Cl)cc(Cl)c3)c2)CC1 [Example 262, 1-((1-((2-(3,5-dichlorophenyl)-6-((2-(4-(2-methoxyethyl)piperazin-1-yl)pyrimidin-5-yl)oxy)pyridin-4-yl)methyl)piperidin-4-yl)methyl)-3-methylurea]
EC50 [1]: 0.316 nM
furin enzyme pIC50 [2]: 9

CC(=O)NCC1CCN(Cc2cc(Oc3ccc(N4CCN([C@H]5C[C@H](NS(C)(=O)=O)C5)CC4)nc3)nc(-c3cc(Cl)cc(Cl)c3)c2)CC1 [Example 26, N-((1-((2-(3,5-Dichlorophenyl)-6-((6-(4-((trans)-3-(methylsulfonamido)cyclobutyl)piperazin-1-yl)pyridin-3-yl)oxy)pyridin-4-yl)methyl)piperidin-4-yl)methyl)acetamide]
EC50 [1]: 1.58 nM
furin enzyme pIC50 [2]: 9.9

CN1CCN(c2ncc(Oc3cc(CN4CCC(NC(N)=O)CC4)cc(-c4cc(Cl)cc(Cl)c4)n3)cn2)CC1 [Example 329, 1-(1-((2-(3,5-dichlorophenyl)-6-((2-(4-methylpiperazin-1-yl)pyrimidin-5-yl)oxy)pyridin-4-yl)methyl)piperidin-4-yl)urea]
EC50 [1]: 15.8 nM
furin enzyme pIC50 [2]: 8.2

CCC(CCN1CCN(c2ccc(Oc3cc(CN4CCC(CNC(C)=O)CC4)cc(-c4cc(Cl)cc(Cl)c4)n3)cn2)CC1)C(=O)O (stereo not drawn) [Example 188, 4-(4-(5-((4-((4-(acetamidomethyl)piperidin-1-yl)methyl)-6-(3,5-dichlorophenyl)pyridin-2-yl)oxy)pyridin-2-yl)piperazin-1-yl)-2-ethylbutanoic acid]
EC50 [1]: 12.6 nM
furin enzyme pIC50 [2]: 8.8

O=C(O)COC1CCN(Cc2cc(Oc3cnc(N4CCNCC4)nc3)nc(-c3cc(Cl)cc(Cl)c3)c2)CC1 [Example 122]
EC50 [1]: 79.4 nM
furin enzyme pIC50 [2]: 8.5

CN1CCN(c2ncc(Oc3cc(CN4CCC(OCC(=O)O)C4)cc(-c4cc(Cl)cc(Cl)c4)n3)cn2)CC1 (stereo not drawn) [Example 128, 2-((1-((2-(3,5-dichlorophenyl)-6-((2-(4-methylpiperazin-1-yl)pyrimidin-5-yl)oxy)pyridin-4-yl)methyl)pyrrolidin-3-yl)oxy)acetic acid]
EC50 [1]: 631 nM
furin enzyme pIC50 [2]: 7.9

OCCC1CCN(Cc2cc(Oc3cnc(N4CCNCC4)cn3)nc(-c3cc(Cl)cc(Cl)c3)c2)CC1 [Example 342, 2-(1-((2-(3,5-dichlorophenyl)-6-((5-(piperazin-1-yl)pyrazin-2-yl)oxy)pyridin-4-yl)methyl)piperidin-4-yl)ethanol]
EC50 [1]: 5.01 nM
furin enzyme pIC50 [2]: 8.7

CC(CCN1CCN(c2ncc(Oc3cc(CN4CCCC4)cc(-c4cc(Cl)cc(Cl)c4)n3)cn2)CC1)C(=O)O (stereo not drawn) [Example 83, 4-(4-(5-((6-(3,5-dichlorophenyl)-4-(pyrrolidin-1-ylmethyl)pyridin-2-yl)oxy)pyrimidin-2-yl)piperazin-1-yl)-2-methylbutanoic acid]
EC50 [1]: 50.1 nM
furin enzyme pIC50 [2]: 8.9

CN1CCN(c2ccc(Oc3cc(CN4CCC(CCO)CC4)cc(-c4cc(Cl)cc(Cl)c4)n3)nn2)CC1 [Example 360, 2-(1-((2-(3,5-dichlorophenyl)-6-((6-(4-methylpiperazin-1-yl)pyridazin-3-yl)oxy)pyridin-4-yl)methyl)piperidin-4-yl)ethanol]
EC50 [1]: 12.6 nM
furin enzyme pIC50 [2]: 9

CC(=O)NCC1CCN(Cc2cc(Oc3ccc(N4CCN(CCP(=O)(O)O)CC4)nc3)nc(-c3cc(Cl)cc(Cl)c3)c2)CC1 [Example 30, (2-(4-(5-((4-((4-(Acetamidomethyl)piperidin-1-yl)methyl)-6-(3,5-dichlorophenyl)pyridin-2-yl)oxy)pyridin-2-yl)piperazin-1-yl)ethyl)phosphonic acid]
EC50 [1]: 501 nM
furin enzyme pIC50 [2]: 9.1

Cc1c(CN2CCC(CC(=O)O)CC2)cc(-c2cc(Cl)cc(Cl)c2)nc1Oc1ccc(N2CCN(C)CC2)nn1 [Example 371, 2-(1-((6-(3,5-Dichlorophenyl)-3-methyl-2-((6-(4-methylpiperazin-1-yl)pyridazin-3-yl)oxy)pyridin-4-yl)methyl)piperidin-4-yl)acetic acid]
EC50 [1]: 31.6 nM
furin enzyme pIC50 [2]: 8.9

CC(=O)NCC1CCN(Cc2cc(Oc3ccc(N4C[C@@H]5C[C@H]4CN5CCS(C)(=O)=O)nc3)nc(-c3cc(Cl)cc(Cl)c3)c2)CC1 [Example 183, N-((1-((2-(3,5-Dichlorophenyl)-6-((6-((1S,4S)-5-(2-(methylsulfonyl)ethyl)-2,5-diazabicyclo[2.2.1]heptan-2-yl)pyridin-3-yl)oxy)pyridin-4-yl)methyl)piperidin-4-yl)methyl)acetamide]
EC50 [1]: 12.6 nM
IC50 [2]: 0.0251 nM

— patent US11773078B2, “Furin inhibitors” (Glaxosmithkline Intellectual Property Development Limited, priority 2018, dated 2023)
